Data as given in PubChem BioAssay AID248 (DTP/NCI, 2004).
Values joined by “and” are separate entries in the source; they are usually repeats but may differ in a detail not shown here. Equal entries are not always repeated. Inconclusive results and toxic doses are left out. No stated cut-off is given here; in the data, active means T/C of 150% or more; inactive means T/C below 125%.

Tested on: L1210 leukemia ip in BDF1 mice, survival T/C
Assay: NCI In Vivo Anticancer Drug Screen. Data for tumor model L1210 Leukemia (intraperitoneal) in B6D2F1 (BDF1) mice
Conditions: endpoint: mean survival time, higher = longer survival
How it was run: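 Ratio derived from survival: compound-dosed mice over vehicle-dosed mice, all bearing a transplantable tumor.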

[1] = dose: 25.0 mg/kg/injection, schedule: Q01DX009 (ip), vehicle: Klucel (hydroxypropylcellulose) (HPC)
[2] = dose: 50.0 mg/kg/injection, schedule: Q01DX009 (ip), vehicle: Klucel (hydroxypropylcellulose) (HPC)
[3] = dose: 100.0 mg/kg/injection, schedule: Q01DX009 (ip), vehicle: Klucel (hydroxypropylcellulose) (HPC)
[4] = dose: 100.0 mg/kg/injection, schedule: Q04DX003 (ip), vehicle: Klucel (hydroxypropylcellulose) (HPC)
[5] = dose: 100.0 mg/kg/injection, schedule: Q01DX001 (ip), vehicle: saline
[6] = dose: 200.0 mg/kg/injection, schedule: Q01DX001 (ip), vehicle: saline
[7] = dose: 400.0 mg/kg/injection, schedule: Q01DX001 (ip), vehicle: saline
[8] = dose: 100.0 mg/kg/injection, schedule: Q01DX009 (ip), vehicle: saline with Tween-80
[9] = dose: 200.0 mg/kg/injection, schedule: Q01DX009 (ip), vehicle: saline with Tween-80
[10] = dose: 12.5 mg/kg/injection, schedule: Q04DX002 (ip), vehicle: Klucel (hydroxypropylcellulose) (HPC)
[11] = dose: 25.0 mg/kg/injection, schedule: Q04DX002 (ip), vehicle: Klucel (hydroxypropylcellulose) (HPC)
[12] = dose: 50.0 mg/kg/injection, schedule: Q04DX002 (ip), vehicle: Klucel (hydroxypropylcellulose) (HPC)
[13] = dose: 400.0 mg/kg/injection, schedule: Q04DX002 (ip), vehicle: Klucel (hydroxypropylcellulose) (HPC)
[14] = dose: 200.0 mg/kg/injection, schedule: Q01DX009 (ip), vehicle: Klucel (hydroxypropylcellulose) (HPC)
[15] = dose: 200.0 mg/kg/injection, schedule: Q04DX003 (ip), vehicle: Klucel (hydroxypropylcellulose) (HPC)
[16] = dose: 400.0 mg/kg/injection, schedule: Q04DX003 (ip), vehicle: Klucel (hydroxypropylcellulose) (HPC)
[17] = dose: 100.0 mg/kg/injection, schedule: Q04DX002 (ip), vehicle: Klucel (hydroxypropylcellulose) (HPC)
[18] = dose: 200.0 mg/kg/injection, schedule: Q04DX002 (ip), vehicle: Klucel (hydroxypropylcellulose) (HPC)

Measured: T/C

CCNC(C)(C)C(Cl)c1ccc(Cl)s1 (stereo unspecified)
inactive: [1] 90 % of control | dose: 25.0 mg/kg/injection, schedule: Q04DX003 (ip), vehicle: Klucel (hydroxypropylcellulose) (HPC) 101 % of control | [2] 89 % of control | dose: 50.0 mg/kg/injection, schedule: Q04DX003 (ip), vehicle: Klucel (hydroxypropylcellulose) (HPC) 97 % of control | [3] 90 % of control | [4] 101 % of control and 102 % of control

COc1nccnc1NS(=O)(=O)c1ccc(N)cc1
inactive: [5] 95 % of control | dose: 100.0 mg/kg/injection, schedule: Q01DX009 (ip), vehicle: saline 92 % of control | [6] 96 % of control | dose: 200.0 mg/kg/injection, schedule: Q01DX009 (ip), vehicle: saline 106 % of control | [7] 102 % of control | dose: 400.0 mg/kg/injection, schedule: Q01DX009 (ip), vehicle: saline 92 % of control

Cc1ccc(Cl)cc1NC(=O)OCCCl
inactive: [8] 95 % of control | dose: 100.0 mg/kg/injection, schedule: Q04DX003 (ip), vehicle: saline 97 % of control | [9] 91 % of control | dose: 200.0 mg/kg/injection, schedule: Q04DX003 (ip), vehicle: saline 100 % of control | dose: 400.0 mg/kg/injection, schedule: Q01DX009 (ip), vehicle: saline with Tween-80 91 % of control | dose: 400.0 mg/kg/injection, schedule: Q04DX003 (ip), vehicle: saline 95 % of control

COC(=O)/C(Br)=C\c1ccc(-c2ccccc2)cc1
inactive: dose: 50.0 mg/kg/injection, schedule: Q01DX009 (ip), vehicle: saline with Tween-80 93 % of control | [8] 93 % of control | [9] 93 % of control

C[Se]c1ncnc2c(C3OC(CO)C(O)C3O)[nH]nc12 (stereo unspecified)
inactive: dose: 3.12 mg/kg/injection, schedule: Q01DX005 (ip), vehicle: saline 106 % of control | dose: 3.12 mg/kg/injection, schedule: Q01DX009 (ip), vehicle: saline 112 % of control | dose: 6.25 mg/kg/injection, schedule: Q01DX005 (ip), vehicle: saline 109 % of control | dose: 6.25 mg/kg/injection, schedule: Q01DX009 (ip), vehicle: saline 94 % of control | dose: 12.5 mg/kg/injection, schedule: Q01DX005 (ip), vehicle: saline 104 % of control | dose: 12.5 mg/kg/injection, schedule: Q01DX009 (ip), vehicle: saline 91 % of control

Cc1c2c(nn1-c1ccccn1)C(=O)C=C(Nc1ccccc1)C2=O
inactive: [10] 92 % of control | [11] 96 % of control | [12] 92 % of control | [13] 90 % of control

CCCCCCCC(O)CCC (stereo unspecified)
inactive: [3] 94 % of control | [4] 100 % of control | [14] 104 % of control | [15] 97 % of control | [16] 92 % of control

Cc1cc(C)c(NC(=O)c2ccc(Cl)cc2Cl)c(C)c1
inactive: [17] 95 % of control | [18] 106 % of control | [13] 95 % of control

O=[N+]([O-])c1ccc(Cl)cc1/C=N/N1CCN(/N=C/c2cc(Cl)ccc2[N+](=O)[O-])CC1
inactive: [5] 93 % of control | [6] 93 % of control | [7] 93 % of control

COC1CCC(/C=C(\C#N)C2CCC([N+](=O)[O-])CC2)CC1 (stereo unspecified)
inactive: dose: 100.0 mg/kg/injection, schedule: Q04DX002 (ip), vehicle: saline with Tween-80 106 % of control | dose: 200.0 mg/kg/injection, schedule: Q04DX002 (ip), vehicle: saline with Tween-80 102 % of control | dose: 400.0 mg/kg/injection, schedule: Q04DX002 (ip), vehicle: saline with Tween-80 98 % of control

COc1ccc(-n2c(=O)c(N=Nc3ccc(Br)cc3)c(O)n(-c3ccccc3C)c2=S)cc1
inactive: dose: 75.0 mg/kg/injection, schedule: Q04DX003 (ip), vehicle: Klucel (hydroxypropylcellulose) (HPC) 98 % of control | dose: 150.0 mg/kg/injection, schedule: Q04DX003 (ip), vehicle: Klucel (hydroxypropylcellulose) (HPC) 104 % of control | dose: 300.0 mg/kg/injection, schedule: Q04DX003 (ip), vehicle: Klucel (hydroxypropylcellulose) (HPC) 107 % of control

c1ccc(CNNC2=NCCN2)cc1
inactive: dose: 15.0 mg/kg/injection, schedule: Q01DX009 (ip), vehicle: saline 103 % of control | dose: 31.0 mg/kg/injection, schedule: Q01DX009 (ip), vehicle: saline 102 % of control | dose: 50.0 mg/kg/injection, schedule: Q01DX001 (ip), vehicle: saline 103 % of control | dose: 62.5 mg/kg/injection, schedule: Q01DX009 (ip), vehicle: saline 92 % of control | [5] 114 % of control

NCc1cccc2ccccc12
inactive: dose: 62.5 mg/kg/injection, schedule: Q01DX001 (ip), vehicle: saline 109 % of control | [5] 112 % of control | dose: 125.0 mg/kg/injection, schedule: Q01DX001 (ip), vehicle: saline 104 % of control | [6] 96 % of control

c1cnc[c]([Hg][c]2cccnc2)c1
inactive: dose: 12.5 mg/kg/injection, schedule: Q01DX009 (ip), vehicle: Klucel (hydroxypropylcellulose) (HPC) 91 % of control | [10] 98 % of control | [1] 88 % of control | [11] 98 % of control | [2] 95 % of control | [12] 103 % of control

Cc1cc(Br)cnc1Cl
inactive: dose: 100.0 mg/kg/injection, schedule: Q04DX003 (ip), vehicle: saline with Tween-80 96 % of control | dose: 200.0 mg/kg/injection, schedule: Q04DX003 (ip), vehicle: saline with Tween-80 94 % of control | dose: 400.0 mg/kg/injection, schedule: Q04DX003 (ip), vehicle: saline with Tween-80 96 % of control

COc1ccc(CSC(=S)Nc2ccc(Cl)c(Cl)c2)cc1OC
inactive: dose: 37.5 mg/kg/injection, schedule: Q04DX003 (ip), vehicle: saline 101 % of control | dose: 75.0 mg/kg/injection, schedule: Q04DX003 (ip), vehicle: saline 93 % of control | dose: 150.0 mg/kg/injection, schedule: Q04DX003 (ip), vehicle: saline 101 % of control

COc1ccccc1/C(=C/c1ccc([N+](=O)[O-])cc1)C(=O)O
inactive: dose: 100.0 mg/kg/injection, schedule: Q01DX001 (ip), vehicle: Klucel (hydroxypropylcellulose) (HPC) 100 % of control | [3] 97 % of control and 100 % of control | [17] 101 % of control and 107 % of control | [4] 97 % of control | dose: 200.0 mg/kg/injection, schedule: Q01DX001 (ip), vehicle: Klucel (hydroxypropylcellulose) (HPC) 94 % of control | [14] 95 % of control and 103 % of control | [18] 102 % of control and 103 % of control | [15] 100 % of control | dose: 400.0 mg/kg/injection, schedule: Q01DX001 (ip), vehicle: Klucel (hydroxypropylcellulose) (HPC) 94 % of control | dose: 400.0 mg/kg/injection, schedule: Q01DX009 (ip), vehicle: Klucel (hydroxypropylcellulose) (HPC) 100 % of control | [13] 97 % of control and 104 % of control | [16] 101 % of control
